Measurements published in patent US20120329739A1 (priority 2010, published 2012).

Columns and labels:
melan-A melanocytes = format: cell-based
[1] = test system: hair graying-induced mice (Mitf^mi-vit); settings: mouse, in vivo

With `O=c1c(-c2ccc(O)cc2)coc2c([C@@H]3O[C@H](CO)[C@@H](O)[C@H](O)[C@H]3O)c(O)ccc12` [puerarin, 8-C-β-D-glucopyranosyl-7-hydroxy-3-(4-hydroxyphenyl)-4H-1-benzopyran-4-one] the “concentration dependence of melanin synthesis promoting effect” value (melan-A melanocytes) was “concentration-dependent”, the “melanin content relative to the negative control group” value (melan-A melanocytes) was “the melanin content is higher than the negative control group” and the “concentration dependence of the effect on hair melanin content” value [1] was “the effect increases as the concentration of puerarin increases”.
